In US20260356860A1, “2-SUBSTITUTED 3,4A,5,7,8,8A-HEXAHYDRO-4H-THIOPYRANO[4,3-DJPYRIMIDIN-4-ONES FOR WOUND TREATMENT” (priority 2022, published 2026):

Experiments:
Tankyrase 2 (TNKS2) = molecular target: T1, Tankyrase 2 (TNKS2) (Homo sapiens, UniProt Q9H2K2); test: TNK2 Binding Assay (Tankyrase 2 ribosylation, chemiluminescence); assay type: biochemical
T1 sequence (Q9H2K2 1-1166): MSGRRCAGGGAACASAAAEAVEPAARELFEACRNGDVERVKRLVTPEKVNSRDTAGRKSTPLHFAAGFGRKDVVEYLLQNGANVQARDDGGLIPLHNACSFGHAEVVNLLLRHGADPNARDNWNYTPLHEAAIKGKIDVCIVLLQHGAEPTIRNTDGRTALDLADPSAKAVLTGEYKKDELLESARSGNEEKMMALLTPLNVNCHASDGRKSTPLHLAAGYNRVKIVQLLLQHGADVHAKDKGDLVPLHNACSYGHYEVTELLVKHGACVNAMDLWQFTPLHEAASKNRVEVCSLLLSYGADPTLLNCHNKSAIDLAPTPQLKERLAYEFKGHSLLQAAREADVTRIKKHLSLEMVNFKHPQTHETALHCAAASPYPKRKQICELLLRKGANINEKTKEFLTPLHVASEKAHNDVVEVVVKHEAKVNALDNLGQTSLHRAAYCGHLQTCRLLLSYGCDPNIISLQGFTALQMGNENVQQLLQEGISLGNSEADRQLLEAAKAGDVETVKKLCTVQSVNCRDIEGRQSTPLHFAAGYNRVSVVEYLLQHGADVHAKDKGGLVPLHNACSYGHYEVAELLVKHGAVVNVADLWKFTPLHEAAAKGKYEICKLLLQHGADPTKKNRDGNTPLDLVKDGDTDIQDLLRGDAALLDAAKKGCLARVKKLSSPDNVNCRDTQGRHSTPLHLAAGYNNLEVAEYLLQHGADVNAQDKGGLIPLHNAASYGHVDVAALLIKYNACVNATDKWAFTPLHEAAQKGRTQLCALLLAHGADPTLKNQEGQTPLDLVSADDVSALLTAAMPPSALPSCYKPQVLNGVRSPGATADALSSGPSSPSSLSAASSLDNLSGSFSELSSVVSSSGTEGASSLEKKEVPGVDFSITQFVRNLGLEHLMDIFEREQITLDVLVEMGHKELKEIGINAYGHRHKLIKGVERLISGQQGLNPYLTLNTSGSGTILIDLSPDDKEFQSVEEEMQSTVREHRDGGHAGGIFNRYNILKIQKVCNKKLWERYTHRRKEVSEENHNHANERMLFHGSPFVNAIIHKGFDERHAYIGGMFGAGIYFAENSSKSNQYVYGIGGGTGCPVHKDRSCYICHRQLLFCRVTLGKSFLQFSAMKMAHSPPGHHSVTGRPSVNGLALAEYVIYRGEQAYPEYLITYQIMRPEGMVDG
Description: Tankyrase 2 assay (n=3) was performed with the following steps: step 1, coating a 96-well plate with 50 μL/well of histone solution; step 2, conducting ribosylation reaction; and step 3, detection.
Step 1: Coating a 96-Well Plate with 50 μL/Well of Histone Solution.
A 5× histone mixture was diluted 1:5 with PBS to make a 1× histone in PBS mixture. 50 μL of the histone mixture was added to each well and incubated at 4° C. overnight. The plate was washed three times using 200 μL PBST buffer (1×PBS containing 0.05% Tween*20 (polysorbate 20) per well. The plate was tapped onto a clean paper towel to remove the liquid. The wells were blocked by adding 200 μL of blocking buffer 3 to each well. The plate was incubated at room temperature for at least 90 minutes. The plate was washed three times with 200 μL PBST buffer. The plate was tapped onto a clean paper towel to remove the liquid.
A fresh solution of 10 mM DTT in water was prepared.
A master mix was prepared and delivered to each well (25 μL/well). Master mix delivered to each well: (2.5 μL of 10×PARP assay buffer (purchased from BPS Bioscience)+2.5 μL of PARP substrate mixture 2+17.5 μL of water+2.5 μL of 10 mM fresh DTT). The concentration of DTT in the master mix was 1 mM. 25 μL of master mix was added to each well.
1×PARP buffer with DTT was prepared. 10×PARP assay buffer was diluted to 1×PARP assay buffer containing DTT by adding 1 volume of 10×PARP assay buffer+1 volume of 10 mM DTT+8 volumes of water. The concentration of DTT in the 1×PARP assay buffer was 1 mM.
5 μL of a test inhibitor was added to each well labeled as “Test Inhibitor.” For the “Positive Control,” the PARP inhibitor, XAV939, was used. For the negative control, no inhibitor is added to the assay mix.
The Tankyrase 2 (TNKS2) enzyme on ice was thawed. The tube containing the enzyme was spun briefly to recover the full content of the tube. The amount of TNKS2 enzyme required for the assay was calculated and the enzyme was diluted to 0.5 ng/μL with 1×PARP assay buffer with DTT. 16) The final concentration of TNKS2 enzyme in the assay was 2 nM. The reaction was initiated by adding 10 μL of diluted TNKS2 enzyme to each well designated “Positive Control” and “Test Inhibitor.” To each well designated as “Blank,” 10 μL of 1×PARP assay buffer with DTT was added. The plate was incubated at room temperature for 1 hour. The plate was washed three times with 100 μL of PBST buffer and the plate was tapped onto a clean paper towel.
1) Streptavidin-HRP was diluted 1:50 in Blocking buffer (purchased from BPS Bioscience) 3.50 μL of diluted Streptavidin-RP was added to each well and incubated for 30 minutes at room temperature. The plate was washed three times with 100 μL of PBST buffer and tapped onto a clean paper towel. Just before use, 1 volume of ELISA ECL Substrate A and 1 volume of ELISA ECL Substrate B were mixed on ice; and 100 μL was added to each well. Immediately, the plate was read in a luminometer or microtiter-plate reader capable of reading chemiluminescence. The “Blank” value was subtracted from all other values.

new porcine skin = test: Max force of healed wound; assay type: in vivo; settings: day 21; for Max Force / Max Force, Mean: topical
Description: Additional tests were performed including elasticity (Table 12); max force (Table 13); tensile strength (strain) (Table 14); energy peak (Table 15); rete-ridge formation; and collagen organization (plane polarized light) (FIG. 24) of the healed wound sites, described as follows.
A is saline (control), B is serum formulation control (vehicle), C is GO-HA (vehicle), D is Compound 1; E is Compound 1+GO-HA; F is Compound 8; G is Compound 8+GO-HA; H is Compound 10; and J is Compound 10+GO-HA. Descriptions for saline control, serum formulation control, and GO-HA are as provided above for FIG. 19.
Max Force (N) is the average force required to break/rupture a material. All compounds of Formula (I) tested with or without GO-HA ranged from 18% to 68% improvement in max force compared to the saline control.

| SMILES | IC50 (Tankyrase 2 (TNKS2)) [nM] | Max Force (new porcine skin; individual value 1) [N] | Max Force (new porcine skin; individual value 2) [N] | Max Force (new porcine skin; individual value 3) [N] | Max Force (new porcine skin; individual value 4) [N] | Max Force, Mean (new porcine skin) [N] | Max Force (new porcine skin; individual value 5) [N] | improvement in max force compared to the saline control (new porcine skin) [%] |
| --- | --- | --- | --- | --- | --- | --- | --- | --- |
| O=c1[nH]c(-c2ccc(B(O)O)cc2)nc2c1CSCC2 [Compound 1, (4-(4-oxo-3,5,7,8-tetrahydro-4H-thiopyrano[4,3-d]pyrimidin-2-yl)phenyl)boronic acid] | 26 | 290.184 | 278.868 | 250.554 | 273.195 | 273.200 |  |  |
| O=c1[nH]c(-c2ccc(-c3ccc(Br)nc3)cc2)nc2c1CSCC2 [Compound 7, 2-(4-(6-bromopyridin-3-yl)phenyl)-3,5,7,8-tetrahydro-4H-thiopyrano [4,3-d]pyrimidin-4-one] | 5 |  |  |  |  |  |  |  |
| CC(C)(OCCO)c1ccc(-c2nc3c(c(=O)[nH]2)CSCC3)cc1 [Compound 8, 2-(4-(2-(2-hydroxyethoxy)propan-2-yl)phenyl)-3,5,7,8-tetrahydro-4H-thiopyrano[4,3-d]pyrimidin-4-one] | 3.16 | 404.094 | 488.094 | 273.110 | 330.413 | 333.196 | 169.61 |  |
| O=c1[nH]c(-c2ccc(-c3ccc(B(O)O)cc3)cc2)nc2c1CSCC2 [Compound 10, (4′-(4-oxo-3,5,7,8-tetrahydro-4H-thiopyrano[4,3-d]pyrimidin-2-yl)-[1,1′-biphenyl]-4-yl)boronic acid] | 3.29 | 406.879 | 474.825 | 344.860 | 335.864 | 390.607 |  | 68 |
| COC(=O)NCCOC(C)(C)c1ccc(-c2nc3c(c(=O)[nH]2)CSCC3)cc1 [Compound 18, methyl (2-((2-(4-(4-oxo-3,5,7,8-tetrahydro-4H-thiopyrano[4,3-d]pyrimidin-2-yl)phenyl)propan-2-yl)oxy)ethyl)carbamate] | 4 |  |  |  |  |  |  |  |
